Data taken from patent US20250059217A1, “HETEROCYCLIC COMPOUNDS AND METHODS OF PREPARATION THEREOF” (priority 2021, published 2025).
Like-named read-outs stand apart in the source and are kept apart here.

Legend:
[1] = target: T1, 5-HT2C receptor (Homo sapiens, UniProt P28335); test: cell-based
T1 construct: expressed in transfected cells; host or cells: HEK293T
T1 sequence (P28335 33-458): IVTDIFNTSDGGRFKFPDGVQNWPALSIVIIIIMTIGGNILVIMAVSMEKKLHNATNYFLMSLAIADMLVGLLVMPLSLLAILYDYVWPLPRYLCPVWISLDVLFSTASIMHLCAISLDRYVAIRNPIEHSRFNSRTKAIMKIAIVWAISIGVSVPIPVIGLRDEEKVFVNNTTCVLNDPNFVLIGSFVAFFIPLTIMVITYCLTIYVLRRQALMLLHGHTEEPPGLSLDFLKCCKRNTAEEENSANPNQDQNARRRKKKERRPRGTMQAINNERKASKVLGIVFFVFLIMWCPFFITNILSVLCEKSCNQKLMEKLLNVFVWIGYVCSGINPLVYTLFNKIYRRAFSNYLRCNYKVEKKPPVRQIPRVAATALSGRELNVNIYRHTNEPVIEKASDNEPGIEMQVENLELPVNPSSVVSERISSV

[2] = target: T2, 5-HT2A receptor (Homo sapiens, UniProt P28223); test: Serotonin receptor 5-HT2 functional assay (Gq dissociation BRET or Gq-dependent calcium flux), 5-HT2A; assay type: cell-based; details: for 5-HT2A BRET Eff %: efficacy relative to 4-hydroxytryptamine
T2 construct: expressed in transfected cells; host or cells: HEK293T
T2 sequence (P28223 whole entry): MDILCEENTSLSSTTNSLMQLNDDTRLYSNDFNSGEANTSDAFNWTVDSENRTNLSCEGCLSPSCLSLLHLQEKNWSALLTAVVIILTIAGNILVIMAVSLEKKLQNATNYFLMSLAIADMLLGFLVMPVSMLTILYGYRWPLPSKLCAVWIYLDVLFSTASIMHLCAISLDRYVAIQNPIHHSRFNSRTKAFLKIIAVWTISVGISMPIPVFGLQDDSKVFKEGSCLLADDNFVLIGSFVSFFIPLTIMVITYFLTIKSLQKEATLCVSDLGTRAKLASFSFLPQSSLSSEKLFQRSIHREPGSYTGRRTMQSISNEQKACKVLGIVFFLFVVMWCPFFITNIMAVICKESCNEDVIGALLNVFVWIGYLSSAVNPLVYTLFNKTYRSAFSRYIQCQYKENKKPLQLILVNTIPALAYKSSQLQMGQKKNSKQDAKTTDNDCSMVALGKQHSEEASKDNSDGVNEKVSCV

[3] = target: T3, 5-HT2B receptor (Homo sapiens, UniProt P41595); test: Serotonin receptor 5-HT2 functional assay (Gq dissociation BRET or Gq-dependent calcium flux), 5-HT2B; assay type: cell-based; details: Table 4, at least three replicate trials; for 5-HT2B BRET Eff %: efficacy relative to 4-hydroxytryptamine; for EC50 / 5-HT2B BRET EC50 (nM): relative to 4-hydroxytryptamine
T3 construct: expressed in transfected cells; host or cells: HEK293T
T3 sequence (P41595 whole entry): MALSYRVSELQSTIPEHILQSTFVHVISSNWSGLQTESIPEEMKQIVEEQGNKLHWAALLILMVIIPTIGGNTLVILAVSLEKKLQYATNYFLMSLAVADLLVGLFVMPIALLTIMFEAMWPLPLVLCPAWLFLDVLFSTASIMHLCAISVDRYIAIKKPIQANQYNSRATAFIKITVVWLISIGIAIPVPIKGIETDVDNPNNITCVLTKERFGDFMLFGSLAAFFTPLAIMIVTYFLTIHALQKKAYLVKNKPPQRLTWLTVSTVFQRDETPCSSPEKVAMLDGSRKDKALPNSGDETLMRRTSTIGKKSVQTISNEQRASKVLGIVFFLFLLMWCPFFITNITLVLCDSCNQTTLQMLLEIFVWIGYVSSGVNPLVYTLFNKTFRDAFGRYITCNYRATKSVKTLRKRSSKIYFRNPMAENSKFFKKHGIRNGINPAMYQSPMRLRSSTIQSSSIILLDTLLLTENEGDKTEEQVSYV

[4] = Table 4, at least three replicate trials
[5] = Table 4, relative to 4-hydroxytryptamine, at least three replicate trials, read-out: 5-HT2A BRET EC50
[6] = Table 4, efficacy relative to 4-hydroxytryptamine, at least three replicate trials
[7] = Table 4, relative to 4-hydroxytryptamine, at least three replicate trials, read-out: 5-HT2C BRET EC50

Structure (SMILES)	5-HT2C BRET Eff % [1] [%]	EC50 [1] [nM]	5-HT2A BRET Eff % [2, 4]	EC50 [2, 5] [nM]	5-HT2B BRET Eff % [3]	EC50 ([3]; read-out: 5-HT2B BRET EC50) [nM]	5-HT2C BRET Eff % [1, 6] [%]	EC50 [1, 7] [nM]	EC50 [2] [nM]	EC50 ([3]; 5-HT2B BRET EC50 (nM)) [nM]	5-HT2B BRET EC50 (nM) [3]	5-HT2A BRET EC50 (nM) ([2]; Table 4, relative to 4-hydroxytryptamine, at least three replicate trials)
NCCc1c[nH]c2cccc(O)c12 [4-hydroxytryptamine, reference compound]	99	0.35	100%	2.9	100%	0.8						
Cc1cccc2c(CCN(C)C)c[nH]c12 [7,N,N-TMT]			80%		36%		79	11.7	232	74		
Cc1ccc(O)c2c(CCN(C)C)c[nH]c12 [Compound 1, 3-[2-(Dimethylamino)ethyl]-7-methylindol-4-ol]	79	6.9	72%		inactive				66		inactive	
CN(C)CCc1c[nH]c2c(CCO)ccc(O)c12 [Compound 7, 3-[2-(Dimethylamino)ethyl]-7-(2-hydroxyethyl)indol-4-ol]			81%	75	inactive		76	5.6			inactive	
CN(C)CCc1c[nH]c2c(CCF)ccc(O)c12 [Compound 8, 3-[2-(Dimethylamino)ethyl]-7-(2-fluoroethyl)indol-4-ol]	56	3930	inactive		inactive						inactive	inactive
CCc1ccc(O)c2c(CCN(C)C)c[nH]c12 [Compound 9, 3-[2-(Dimethylamino)ethyl]-7-ethylindol-4-ol]	67	28	78%		inactive				154		inactive	
CC(C)c1ccc(O)c2c(CCN(C)C)c[nH]c12 [Compound 10, 3-[2-(Dimethylamino)ethyl]-7-isopropylindol-4-ol]	60	34	40%		inactive				1070		inactive	
CC(C)c1ccc(O)c2c(CCN(C)C)cn(C)c12 [Compound 11, 3-[2-(Dimethylamino)ethyl]-7-isopropyl-1-methylindol-4-ol]	88	22	66%		inactive				1160		inactive	
CCN(C)CCc1c[nH]c2c(C)ccc(O)c12 [Compound 14]	108	4.2	63%		inactive				82		inactive	
Cc1ccc(O)c2c(CCN(C)C(C)C)c[nH]c12 [Compound 16, 3-[2-[Isopropyl(methyl)amino]ethyl]-7-methylindol-4-ol]	103	53	77%		inactive				150		inactive	
Cc1ccc(O)c2c(CCN(C)C3CC3)c[nH]c12 [Compound 17]	111	3.2	54%		inactive				12.9		inactive	
Cc1ccc(OP(=O)(O)O)c2c(CCN(C)C)c[nH]c12 [Compound 24]	69	370	69%		inactive				1150		inactive	
Cc1cc(F)c(O)c2c(CCN(C)C)c[nH]c12 [Compound 30]			64%		8%							
CN(C)CCc1c[nH]c2cccc(O)c12 [psilocin, reference compound]			82%		63%							
